Reference: US20090247519A1, “AMINO-ETHYL-AMINO-ARYL (AEAA) COMPOUNDS AND THEIR USE” (priority 2006, published 2009)

Target: T1, Human full length PKD1 (Homo sapiens, UniProt Q15139)
T1 construct: Human full length PKD1 at ˜100 μg/mL purchased from Upstate Ltd; purchased Upstate Ltd 14-508
T1 sequence (Q15139 1-912): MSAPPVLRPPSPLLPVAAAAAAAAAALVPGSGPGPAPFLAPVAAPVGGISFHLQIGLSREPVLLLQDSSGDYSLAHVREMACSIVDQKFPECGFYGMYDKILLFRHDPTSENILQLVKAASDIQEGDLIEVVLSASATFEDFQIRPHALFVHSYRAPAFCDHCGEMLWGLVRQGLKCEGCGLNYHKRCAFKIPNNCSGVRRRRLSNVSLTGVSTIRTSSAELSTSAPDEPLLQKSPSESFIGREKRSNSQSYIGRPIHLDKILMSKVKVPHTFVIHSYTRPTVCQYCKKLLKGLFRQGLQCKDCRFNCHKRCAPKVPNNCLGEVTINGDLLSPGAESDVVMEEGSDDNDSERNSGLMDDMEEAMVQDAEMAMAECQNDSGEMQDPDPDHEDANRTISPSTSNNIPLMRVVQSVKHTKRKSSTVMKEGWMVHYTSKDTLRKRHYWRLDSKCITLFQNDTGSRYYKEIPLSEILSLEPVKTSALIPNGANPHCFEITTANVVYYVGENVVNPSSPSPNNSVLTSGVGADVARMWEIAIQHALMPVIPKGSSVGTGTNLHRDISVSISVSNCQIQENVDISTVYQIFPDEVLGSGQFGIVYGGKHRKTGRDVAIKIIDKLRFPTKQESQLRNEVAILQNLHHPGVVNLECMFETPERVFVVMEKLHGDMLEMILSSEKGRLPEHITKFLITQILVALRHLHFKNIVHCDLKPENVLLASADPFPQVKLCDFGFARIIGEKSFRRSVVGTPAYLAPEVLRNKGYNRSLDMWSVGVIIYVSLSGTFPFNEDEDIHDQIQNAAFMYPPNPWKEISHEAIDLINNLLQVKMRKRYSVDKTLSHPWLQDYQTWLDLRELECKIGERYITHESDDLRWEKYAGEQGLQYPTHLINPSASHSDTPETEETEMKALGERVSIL
Assay: PKD1 (Human Full Length) Enzyme Activity Assay (IMAP fluorescence polarisation)
Format: biochemical
Conditions: 10 μM ATP, 10 point dose-response
Procedure: PKD1 (Human Full Length) Enzyme Activity Assay
Kinase Assay Reaction Buffer: This consisted of 0.22 μM filtered 25 mM HEPES and 2 mM MgCl2 pH 7.5.
Kinase Enzyme Human full length PKD1 at ˜100 μg/mL purchased from Upstate Ltd (Product code 14-508) was obtained from aliquots stored at −70° C. It was prepared with a final concentration of 0.3 μg/mL by diluting 1:300 in Reaction Buffer (30 μL per 9 mL-5 mL per plate with an additional 4 mL dead volume) and vortexing prior to use.
Substrate: Fluorescein labelled glycogen synthase-derived peptide (FI)-KKLNRTLSVA (also known as MAPKAP K2 substrate) was obtained from Molecular Devices (Product code R7127). […]
The fluorescence polarisation of the substrate in each well was recorded using an analyst microplate reader (Molecular Devices) with a single read at Ex485 Em535 (Analyst settings: Z Height 5 mm, G Factor 0.95, Reads/well 1, Integration 100000 μs, Gain Sensitivity 2).
Percentage inhibition was calculated based on activity of the test sample minus the average values in the blank wells relative to the average values measured in control wells minus the average values in the blank wells.
IC50 values were calculated from 10 point dose sigmoid ‘dose-response’ curves using XIfit software (IDBS inc, USA). […]

- IC50: 0.9 nM
Compound: CC[C@@H](N)CN(C)c1ccnc(-c2cc(Cl)ccc2O)n1 [XX-276, 2-{4-[((R)-2-Amino-butyl)-methyl-amino]-pyrimidin-2-yl}-4-chloro-phenol]
